Source: publication PMC7356104, “Oral Administration of Artemisone for the Treatment of Schistosomiasis: Formulation Challenges and In Vivo Efficacy” (Pharmaceutics, 2020)
≈ marks a conversion by molar mass, not a printed value. Read-outs that look alike come from different tables or passages of the source.

Tests used:
[1] = design: method as in earlier work; conditions: cited from earlier work
[2] = Storage stability of artemisone in SMEDDS and PBS at 30 °C (HPLC); format: physicochemical; conditions: 80 µg/mL in PBS pH 6.5, 30 °C, light exclusion
Description: (§1) Artemisone was quantified with high-performance liquid chromatography (HPLC) (Agilent/HP 1100 HPLC series, high-pressure pump, degasser, UV-VIS detector and autosampler, now Agilent Technologies, Inc., Santa Clara, CA, USA), using a method we developed and validated according to the ICH guidelines, over a range of 10–500 µg artemisone/mL (Table 1).
Artemisone (50 mg/g) was dissolved in SMEDDS-100. For SMEDDS-50-ART and SMEDDS-20-ART, PBS was added to the drug-loaded formulation to give the microemulsions, containing 25 mg/g and 10 mg/g artemisone, respectively. A solution of 80 µg/mL artemisone in PBS pH 6.5 Ph.Eur. was prepared and used as control, the pH found for SMEDDS-50 and SMEDDS-20 also being around 6.5. Triplicates of all three preparations were stored in glass vials with Teflon sealed lids at 30 °C under light exclusion. Samples were taken after 14, 28, 42, 56, and 92 days and analyzed via HPLC to monitor drug stability.

[3] = tested on: S. mansoni; conditions: cited from earlier work
[4] = Solubility of artemisone in organic solvents, excipients and SMEDDS (HPLC); format: physicochemical; conditions: thermodynamic from solid
Description: The solubility of artemisone in organic solvents and lipid excipients was determined according to the following procedure: 200 mg artemisone/1.0 mL excipient were placed on an orbital mixing heating plate (Torrey Pines Scientific, Carlsbad, CA, USA) at 25 °C for 24 h under light exclusion. Samples were centrifuged and the supernatant filtered and diluted with ethanol as necessary before HPLC analysis. Samples were prepared in triplicates.
as §1

[5] = tested on: P. falciparum NF54 parasites; test: In vitro efficacy on P. falciparum in culture; format: cell-based, Plasmodium falciparum; conditions: 48 h
Description: P. falciparum NF54 parasites were cultivated at 4% hematocrit in RPMI 1640 medium, 0.5% Albumax II (Invitrogen, Carlsbad, CA, USA), 0.25% sodium bicarbonate, and 0.1 mg/mL gentamicin. 200 µL of parasite suspension at 1% parasitemia were incubated in a Nunc microplate, in 96 flat-bottom wells, at 37 °C, in an atmosphere of 5% oxygen, 5% carbon dioxide and 90% nitrogen. Drug dilutions were added in triplicates in 25 µL. After 48 h P. falciparum parasitaemias were estimated by microscopic determination of the percent of parasitized erythrocytes in a total of 5000 erythrocytes, using Giemsa stained blood smears that were prepared from triplicate individual wells.

[6] = design: method as in PMID 21596127; conditions: oral Pheroid technology formulation, mice; cited from earlier work
[7] = H2O; cited from earlier work
[8] = similar procedure (single oral dose)

In the case of `C[C@H]1[C@H](N2CCS(=O)(=O)CC2)O[C@@H]2O[C@@]3(C)CC[C@H]4[C@H](C)CC[C@@H]1[C@@]24OO3` [artemisone, 4-[(1R,4S,5R,8S,9R,10R,12R,13R)-1,5,9-trimethyl-11,14,15,16-tetraoxatetracyclo-hexadecan-10-yl]-1,4-thiazinane1,1-dioxide], the “degradation in aqueous medium” value ([1]; pH 3) is listed as “complete degradation was observed within one week”, the “intact compound remained after one month” value ([1]; pH 5) is listed as 20% and the “intact compound remained after one month” value ([1]; pH 7.4) is listed as 75%. The “artemisone recovered after three months” value [2] was 51.5 ± 0.4%, the “reduction of worm load” value [3, 8] was “more than 90%” and the solubility at 24 h ([4]; oil or lipid, in Polysorb ID 46, 25 °C) was 55 mg/mL (≈ 137 mM). The solubility at 24 h ([4]; oil or lipid, in medium chain mono- and diglycerides (Capmul MCM), 25 °C) was 62.5 mg/mL (≈ 156 mM), the solubility at 24 h ([4]; oil or lipid, in medium chain triglycerides (MCT), 25 °C) was 22.5 mg/mL (≈ 56 mM) and the solubility at 24 h ([4]; organic solvent or mixture, in DMF, 25 °C) was over 100 mg/mL. It also gave a solubility at 24 h ([4]; organic solvent or mixture, in DMSO, 25 °C) of over 100 mg/mL, a solubility at 24 h ([4]; organic solvent or mixture, in acetone, 25 °C) of over 100 mg/mL and a solubility at 24 h ([4]; organic solvent or mixture, in dichloromethane, 25 °C) of over 100 mg/mL. It also gave a solubility at 24 h ([4]; organic solvent or mixture, in ethanol, 25 °C) of 30 mg/mL (≈ 74.7 mM), a solubility at 24 h ([4]; organic solvent or mixture, in hexane, 25 °C) of 0.8 mg/mL (≈ 1.99 mM) and a solubility at 24 h ([4]; organic solvent or mixture, in methanol, 25 °C) of 50 mg/mL (≈ 125 mM). The solubility at 24 h ([4]; organic solvent or mixture, in propylene glycol, 25 °C) was 8.5 mg/mL (≈ 21.2 mM), the “concentration at which parasitaemia was completely blocked” value [5] was “below 11 ng/mL” and the ED50 ([5]; parasitaemia by Giemsa smears) was 1 to 2 ng/mL. The “higher absorption of artemisone compared to an aqueous vehicle containing 10% DMSO” value [6] was 5.57 fold and the aqueous solubility [7] was 0.089 mg/mL (≈ 0.222 mM).
In the case of `CO[C@H]1O[C@@H]2O[C@@]3(C)CC[C@H]4[C@H](C)CC[C@@H]([C@H]1C)[C@@]24OO3` [artemether], the “reduction of worm load” value [3, 8] is given as “more than 90%”.
For `C[C@H]1[C@H](N2CCSCC2)O[C@@H]2O[C@@]3(C)CC[C@H]4[C@H](C)CC[C@@H]1[C@@]24OO3` [artemiside], the “reduction of worm load” value [3, 8] is given as “more than 90%”.
For `C[C@H]1[C@H](OC(=O)CCC(=O)O)O[C@@H]2O[C@@]3(C)CC[C@H]4[C@H](C)CC[C@@H]1[C@@]24OO3` [artesunate], the “reduction of worm load” value ([3]; single oral dose 400 mg/kg in 3% ethanol and 7% Tween 80, 21 days post-infection) is listed as 66%.
